Two compounds from article PMC12006171, “Marsupial cathelicidins: characterization, antimicrobial activity and evolution in this unique mammalian lineage” (Frontiers in Immunology, 2025) can be followed below.

In brackets after ≈: the same amount, converted by molar mass. Read-outs that look alike come from different tables or passages of the source. Where a SMILES comes first, the peptide text is derived from it.

What all share (format): cell-based
Assay [1] has as its system six bacteria (S. aureus, E. coli, P. aeruginosa; ATCC and clinical isolate). An outline of the steps: (§1)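 MIC read visually as the lowest peptide concentration with no growth versus negative control, after 20–24 h at 35°C. Peptides were tested in duplicate 64-0.125μg/mL (final) in MHB or cation-supplemented MH II B, some with 10% lysed horse blood; inoculum 5 x 10^5 CFU/mL.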

The test system of assay [2] is three fungi (Candida krusei, Candida parapsilosis, Candida albicans). Nature of the assay: Antifungal screening, summary over the panel of fungi (broth microdilution). To be noted: broth microdilution screening, phase I; Y/N summary over the fungi tested; synthesized mature peptide. How it is done:
Antimicrobial testing of 78 cathelicidin MPs was performed in two phases as outlined in Figure 1 . In phase I, 40 peptides (27 extant and 13 ancestral) were selected for testing based on rank (outlined above) and similarity to published marsupial cathelicidins with known antimicrobial activity ([33], [41]–[43]). These peptides were tested against nine bacteria (Staphylococcus aureus ATCC 29213 and clinical isolate, Escherichia coli ATCC 25922 and clinical isolate, Pseudomonas aeruginosa ATCC 27853 and clinical isolate, Streptococcus agalactiae ATCC 12386 and clinical isolate, Streptococcus pneumoniae ATCC 49619) and three fungi (Candida krusei ATCC 6258, Candida parapsilosis ATCC 22019, and Candida albicans clinical isolate). Details regarding these strains are available in Supplementary Table 4 . The antimicrobial activity of cathelicidins was determined as the minimum inhibitory concentration (MIC), which was the lowest concentration of cathelicidin that prevented visible bacterial or fungal growth, relative to the negative control. […] Minimum bactericidal concentration (MBC) and/or minimum fungicidal concentration (MFC) was conducted to determine microbicidal versus static action. Activity against S. aureus ATCC, E. coli ATCC, and Pseudomonas aeruginosa ATCC 27853 was examined in the presence of divalent cations to determine the impact of inhibitors.
Antimicrobial activity was determined using a broth microdilution susceptibility assay in 96 well polypropylene plates according to Clinical Laboratory Standards Institute guidelines M07-A and M26A as described previously ([33], [42], [43]). The bacterial and fungal isolates from humans and animals used in this study are outlined in Supplementary Table 4 . Only yeasts were included in the panel of fungi as they have been used in the susceptibility testing of eutherian ([3], [81]–[83]) and other marsupial cathelicidins previously ([33], [42], [43]). Cathelicidin mature peptides were solubilized in DMSO and serially diluted in duplicate from 128-0.25μg/mL in a final volume of 100µL. For bacteria, cathelicidins were diluted in Mueller Hinton Broth (MHB) with or without 10% lysed horse blood, and with (MH II B) or without (MHB) calcium and magnesium cations. For fungi, cathelicidins were diluted in Roswell Park Memorial Institute medium (RPMI)-1640 MOPS. Ampicillin or tetracycline were included as a positive control for Gram-positive and -negative bacteria respectively, while amphotericin B was used for fungi. A media-only negative control and growth control (no cathelicidin) were also included on each plate. Bacteria were sub-cultured on Muller Hinton agar (MHA) or sheep blood agar (BA), and fungi on Sabouraud dextrose agar (SAB), 20–24 hours prior to the test. Colonies were suspended in saline, the concentration adjusted to a 0.5 McFarland standard, and then diluted in media to a concentration of 1.0 x 10^6 cells/mL. Then, 100μL was added to each well of the cathelicidin dilution plate, giving a final inoculum density of 5 x 10^5 CFU/mL and cathelicidin concentration of 64-0.125μg/mL. Colony counts were performed on MHA/BA/SAB to confirm inoculum density. All plates were incubated at 35°C for 20–24 hours, depending on the strain.
Colonies were counted and compared to the colony count of the starting inoculum.

For assay [3], the system named is Staphylococcus aureus clinical isolate – animal, methicillin-resistant (MRSA). To be noted: clinical isolate – animal, methicillin-resistant. An outline of the steps: (§2)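 Endpoint is visible-growth inhibition (MIC) after 35°C, 20–24 h incubation. Yeast medium was RPMI-1640 MOPS; bacterial medium was Mueller Hinton broth, with or without divalent cations and lysed horse blood. Final peptide range 64-0.125μg/mL.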

The test system of assay [4] is Staphylococcus aureus clinical isolate – animal, penicillin-resistant (PRSA). To be noted: clinical isolate – animal, penicillin-resistant (PRSA). In outline: as §2
Assay [5] relates to Candida krusei ATCC 6258. Nature of the assay: microbe, parasite or virus in culture. To be noted: ATCC 6258. An outline of the steps:
as §2

Assay [6] has as its system Candida albicans Clinical isolate - human. Nature of the assay: microbe, parasite or virus in culture. To be noted: Clinical isolate - human. In outline:
as §2

Assay [7] deals with Streptococcus agalactiae ATCC 12386. Nature of the assay: microbe, parasite or virus in culture. To be noted: ATCC 12386; read-out: MIC S. agalactiae ATCC. In outline: as §2
For assay [8], the system named is Streptococcus pneumoniae ATCC 49619. Kind of assay: microbe, parasite or virus in culture. To be noted: ATCC 49619; read-out: MIC S. pneumoniae ATCC. An outline of the steps: as §2
For assay [9], the system named is Candida parapsilosis ATCC 22019. Nature of the assay: microbe, parasite or virus in culture. To be noted: ATCC 22019. An outline of the steps:
as §2

Assay [10] relates to Streptococcus agalactiae Clinical isolate - animal. Kind of assay: microbe, parasite or virus in culture. To be noted: clinical isolate - animal. An outline of the steps:
as §2

The test system of assay [11] is Escherichia coli clinical isolate - animal. Nature of the assay: microbe, parasite or virus in culture. To be noted: clinical isolate - animal. In outline:
as §1

Assay [12] has as its system Staphylococcus aureus ATCC 29213. Kind of assay: microbe, parasite or virus in culture. To be noted: ATCC 29213. An outline of the steps: as §1
Assay [13] concerns Pseudomonas aeruginosa ATCC 27853. Nature of the assay: microbe, parasite or virus in culture. To be noted: ATCC 27853; read-out: MIC P. aeruginosa ATCC. An outline of the steps:
as §1

The subject of assay [14] is Escherichia coli ATCC 25922. Kind of assay: microbe, parasite or virus in culture. To be noted: ATCC 25922. In outline: as §1
The test system of assay [15] is Pseudomonas aeruginosa clinical isolate - animal. Kind of assay: microbe, parasite or virus in culture. To be noted: clinical isolate - animal. An outline of the steps: as §1
The test system of assay [16] is Staphylococcus aureus clinical isolate - animal. Kind of assay: microbe, parasite or virus in culture. To be noted: clinical isolate - animal. In outline:
as §1

For “RSKRSSSLEEIDIDSLPPKVKEIYYRGIDDAIGGILRNF [TrvuCath4]”, the “Antibacterial (MIC <64ug/mL)” value in [1] (broth microdilution screening, phase I or II, Y/N summary over the bacteria tested, synthesized mature peptide) was “N (Antibacterial (MIC <64ug/mL))”. In [2], the “Antifungal (MIC <64ug/mL)” value is “N (Antifungal (MIC <64ug/mL))”.

Regarding `CC[C@H](C)[C@H](NC(=O)[C@H](CCCNC(=N)N)NC(=O)[C@H](CC(=O)O)NC(=O)[C@H](Cc1c[nH]c2ccccc12)NC(=O)[C@@H](NC(=O)[C@H](CCCNC(=N)N)NC(=O)[C@H](CCCNC(=N)N)NC(=O)[C@@H](NC(=O)[C@H](CC(C)C)NC(=O)[C@H](CCCNC(=N)N)NC(=O)CNC(=O)[C@H](CC(C)C)NC(=O)[C@H](CCCNC(=N)N)NC(=O)CNC(=O)[C@H](CCCNC(=N)N)NC(=O)[C@@H](N)CCCCN)[C@@H](C)CC)[C@@H](C)CC)C(=O)N[C@@H](CCCNC(=N)N)C(=O)NCC(=O)NCC(=O)O` [MyfaCath7] (H-KRGRLGRLIRRIWDRIRGG-OH), in assay [1], the “MIC against at least one strain” value amounted to 4 µg/mL (≈ 1.71 µM). In assay [3], this compound came in with an MBC MRSA of 3.4 µM (≈ 7.94 µg/mL) and an MIC MRSA of 3.4 µM (≈ 7.94 µg/mL). In assay [4], the MBC PRSA came to 1.7 µM (≈ 3.97 µg/mL) and the MIC PRSA was determined as 1.7 µM (≈ 3.97 µg/mL). In addition, in [5], the MFC C. krusei ATCC came to 6.8 µM (≈ 15.9 µg/mL) and the MIC C. krusei ATCC is 6.8 µM (≈ 15.9 µg/mL). Besides, in [6], the MFC C. albicans came out at 27.4 µM (≈ 64 µg/mL) and the MIC C. albicans was found to be 27.4 µM (≈ 64 µg/mL). Further, in assay [7], the MIC is greater than 27.4 µM. For the same compound, in [8], the MIC was greater than 27.4 µM. In assay [9], this compound showed an MFC C. parapsilosis ATCC of 13.7 µM (≈ 32 µg/mL) and an MIC C. parapsilosis ATCC of 13.7 µM (≈ 32 µg/mL). In assay [10], this compound gave an MBC S. agalactiae of 13.7 µM (≈ 32 µg/mL) and an MIC S. agalactiae of 13.7 µM (≈ 32 µg/mL). Besides, in assay [11], the “MBC E. coli” value is reported as 1.7 (1.7)^1.7 µM, the “MIC E. coli” value was 1.7 (1.7)^1.7 µM and the “MIC in the presence of cations E. coli” value is reported as 1.7 (1.7)^1.7 µM. Moreover, in assay [12], the “MBC S. aureus ATCC” value is listed as 3.4 (3.4)^3.4 µM, the “MIC S. aureus ATCC” value is 3.4 (3.4)^3.4 µM and the “MIC in the presence of cations S. aureus ATCC” value was 3.4 (3.4)^3.4 µM. Also, the MIC in assay [13] is greater than 27.4 µM. Also, the “MBC E. coli ATCC” value in assay [14] is recorded as 1.7 µM (≈ 3.97 µg/mL). In [14] (read-out: MIC E. coli ATCC), the MIC was determined as 1.7 µM (≈ 3.97 µg/mL). In addition, in assay [14] (read-out: MIC in the presence of cations E. coli ATCC), the MIC turned out to be 3.4 µM. For the same compound, in [15], the “MBC P. aeruginosa” value is listed as greater than 27.4 µM. The MIC in assay [15] (read-out: MIC P. aeruginosa) worked out at 13.7 µM (≈ 32 µg/mL). Further, in [15] (read-out: MIC in the presence of cations P. aeruginosa), the MIC turned out to be 27.4 µM. Moreover, in [16], the “MBC S. aureus” value is 3.4 (3.4)^3.4 µM, the “MIC S. aureus” value was 3.4 (3.4)^3.4 µM and the “MIC in the presence of cations S. aureus” value is reported as 3.4 (3.4)^3.4 µM.
